Laboratory results published in publication PMC9016807, “Metabolic, Pharmacokinetic, and Activity Profile of the Liver Stage Antimalarial (RC-12)” (ACS Omega, 2022).
Several values for one entry are separate records, joined by “and”; a condition that tells them apart may be missing. Equal values may be shown once. Read-outs that look alike come from different tables or passages of the source.

Assays:
[1] = tested on: P. vivax liver-stage parasites; assay: P. vivax liver-stage in vitro assay, prophylactic mode; assay type: cell-based, Plasmodium vivax; details: 20 μM, two independent runs, threshold for activity 75% inhibition
Description: Compound 1 and its metabolites were tested in both prophylactic and radical cure modes for activity against P. vivax liver-stage parasites.[16],[17] In the prophylactic assay, compounds are added the day after sporozoite invasion into hepatocytes in order to characterize the compound activity against established liver forms with a parasitophorous vacuole membrane (as opposed to activity on preinvasion sporozoites) and prior to complete maturation of hypnozoites into drug-insensitive dormant forms, which appear at about 5 days postinvasion.[18] In the radical cure assay, compounds are added at day 5 postinfection to characterize activity against late-stage schizonts and mature PI4K inhibitor-insensitive hypnozoites.[19] In these experiments, the threshold for activity is 75% inhibition. […] Similarly, as previously described,[20] 10 μM concentrations of 1 and its metabolites were also tested for activity against P. cynomolgi schizont (large forms) and hypnozoite (small forms) liver-stage parasites cultured in rhesus monkey hepatocytes. In these experiments, the threshold for activity is 50% inhibition.
Compounds were prepared as 20 mM stock solutions in DMSO and tested in an eight-point semilog (1/3) dilution series from 20 μM in 384-well assay plates in both prophylactic and radical cure mode against P. vivax liver-stage parasites as previously described.[16] Following ethical approval from the Institutional Ethics Committee of the Thai Ministry of Public Health, the Ethical Review Committee of Faculty of Tropical Medicine, Mahidol University (TMEC 11-008 and 14-016), the Oxford Tropical Medicine Ethical Committee, Oxford University, England (OxTREC 17-11 and 40–14), and the Cambodian National Ethics Committee for Health Research (101NECHR), isolates of P. vivax infected blood were collected from patent volunteers in Tak province, Thailandm and Mondulkiri province, Cambodia. Samples were collected by venipuncture into heparin tubes prior to replacement of patient serum with nonimmune AB human serum and feeding to laboratory-reared Anopheles dirus cracens or An. dirus A mosquitoes via water-jacket artificial membrane feeders or the Hemotek insect feeding system (Hemotek, Blackburn, UK) set to maintain the bloodmeal temperature at 37 °C. […] Cryopreserved human hepatocytes (BioIVT, Baltimore, Maryland, USA) were thawed into InVitroGro CP Medium (BioIVT), quantified for viability by trypan blue dye exclusion, diluted to 800–1000 live cells per microliter, and 18000 live cells were plated into each well of a collagen-coated 384-well plate (Greiner, Monroe, NC, USA) by a 16-channel pipet (Finnpipette, Thermo Fisher Scientific, Waltham, MA). […]

[2] = tested on: P. falciparum (NF54 clone); assay: Blood stage activity against cultured P. falciparum; assay type: cell-based, Plasmodium falciparum; details: concentration up to 15 μM
P. cynomolgi hypnozoites = tested on: P. cynomolgi hypnozoites; parameters: method as in PMID 4091527; details: cited from earlier work
[3] = Pharmacokinetics in rats after IV and PO administration; assay type: in vivo, male Sprague–Dawley rats
Description: Animal studies were conducted using established procedures in accordance with the Australian Code of Practice for the Care and Use of Animals for Scientific Purposes, and the study protocols were reviewed and approved by the Monash Institute of Pharmaceutical Sciences Animal Ethics Committee. The study was conducted in overnight-fasted male Sprague–Dawley rats weighing 266–292 g. Rats had access to water ad libitum throughout the pre- and postdose sampling period, and access to food was reinstated 4 h postdose. Compound 1 was administered intravenously as a 10 min constant rate infusion via an indwelling jugular vein cannula (1 mL per rat, n = 5 rats) and orally by gavage (10 mL/kg per rat, n = 2–3 rats), and samples of arterial blood and total urine were collected up to 24 h postdose. Arterial blood was collected directly into borosilicate vials (at 4 °C) containing heparin. Blood samples were centrifuged, and the supernatant plasma was removed and stored frozen (−80 °C) until analysis by LC-MS. Plasma samples and calibration standards (prepared in blank rat plasma) were processed by protein precipitation with a 2-fold volume of acetonitrile. LC-MS analysis was conducted using a Waters Micromass Quattro Premier triple-quadrupole mass spectrometer coupled to a Waters Acquity UPLC with a Phenomenex C18 Kinetex column (50 × 2.1 mm, 2.7 μm). Elution was achieved using a methanol–water gradient (containing 8.2 mM formic acid and 1.25 mM ammonium formate) with a flow rate of 0.6 mL/min, a gradient cycle time of 6 min, and an injection volume of 2 μL. MS detection was conducted using positive electrospray ionization with multiple reaction monitoring. Transitions (m/z), cone voltages (V), and CID voltages (V) were as follows: 1, 430.26 > 99.93, 40, 20; 2, 416.27 > 99.80, 30, 20; 3, 402.22 > 99.93, 35, 20; 4, 388.23 > 99.86, 35, 20; 5: 374.25 > 72.01, 35, 25; diazepam (285.25 > […], 40, 25) (used as an internal standard). The quantitation range in plasma was typically 1–10000 ng/mL, and the accuracy and precision were within ±10% and <10%, respectively, for each analyte. Urine samples were analyzed using either a 20- or 200-fold dilution with 50% acetonitrile and assayed against calibration standards prepared in the same solvent.

[4] = PO, 11 mg/kg, individual values n = 2
[5] = male, Sprague-Dawley, rat, plasma, po, 27 mg/kg

Question: With `CCN(CC)CCN(CCN(CC)CC)c1cc(OC)c(OC)cc1Br` [Compound 1, 4-(2-bromo-4,5-dimethoxyphenyl)-1,1,7,7-tetraethyldiethylenetriamine] as the compound, how does the “activity against schizonts or hypnozoites” value [1] read?
Answer: no activity

Question: What about the blood stage activity [2] of the same compound?
Answer: no blood stage activity

Question: What about the “efficacy against hypnozoites relative to primaquine” value (P. cynomolgi hypnozoites) of the same compound?
Answer: about 1 order of magnitude less effective than primaquine

Question: And the hemolysis (P. cynomolgi hypnozoites)?
Answer: produced no hemolysis

Question: What about the “toxicity relative to primaquine” value (P. cynomolgi hypnozoites) of the same compound?
Answer: 1 order of magnitude less toxic

Question: And the “dose excreted in urine as parent” value ([3]; IV, 3 mg/kg, individual values)?
Answer: 9.2% and 10.7%

Question: What about the Cmax [3, 4] of the same compound?
Answer: 50 nM

Question: What about the Tmax [3, 4] of the same compound?
Answer: 0.8 h

Question: What about the plasma half-life [3, 4] of the same compound?
Answer: 6.1 h

Question: What about the half-life ([3]; male, Sprague-Dawley, rat, plasma, intravenous and oral, after IV and PO administration, read-out: terminal half-life) of the same compound?
Answer: 5 to 7 h

Question: What about the clearance ([3]; male, Sprague-Dawley, rat, plasma, iv, 3 mg/kg) of the same compound?
Answer: 147 ± 33 mL/min/kg

Question: What about the half-life ([3]; male, Sprague-Dawley, rat, plasma, iv, 3 mg/kg, IV, 3 mg/kg, n = 5, read-out: plasma half-life (converted)) of the same compound?
Answer: 7 ± 1.3 h

Question: What about the Vd ([3]; male, Sprague-Dawley, rat, plasma, iv, 3 mg/kg, read-out: plasma volume of distribution) of the same compound?
Answer: 51 ± 10 L/kg

Question: What about the bioavailability ([3]; male, Sprague-Dawley, rat, plasma, po, 11 mg/kg) of the same compound?
Answer: ~16%

Question: And the Tmax ([3]; male, Sprague-Dawley, rat, plasma, po, 11 mg/kg, PO, 11 mg/kg, individual values n = 2, read-out: Tmax)?
Answer: 1 h

Question: And the half-life ([3]; male, Sprague-Dawley, rat, plasma, po, 11 mg/kg, PO, 11 mg/kg, individual values n = 2, read-out: plasma half-life (converted))?
Answer: 4.9 h

Question: And the Cmax ([3]; male, Sprague-Dawley, rat, plasma, po, 11 mg/kg, individual values n = 2)?
Answer: 70 nM

Question: And the Cmax [3, 5]?
Answer: 310 ± 30 nM

Question: And the bioavailability [3, 5]?
Answer: ~27%

Question: What about the half-life ([3]; male, Sprague-Dawley, rat, plasma, po, 27 mg/kg, PO, 27 mg/kg, n = 3, read-out: plasma half-life (converted)) of the same compound?
Answer: 7.4 ± 1.3 h

Question: And the Tmax ([3]; male, Sprague-Dawley, rat, plasma, po, 27 mg/kg, PO, 27 mg/kg, read-out: Tmax)?
Answer: 1 h

Question: What about the Tmax ([3]; male, Sprague-Dawley, rat, plasma, po, oral administration, read-out: time of maximum plasma concentrations postdose) of the same compound?
Answer: ~1 h

Question: What about the blood plasma ratio ([3]; male, Sprague-Dawley, whole blood and plasma, 3 mg/kg, rat, IV column) of the same compound?
Answer: 2.1

Question: And the “renal elimination as share of overall in vivo clearance” value ([3]; rat)?
Answer: approximately 10%
